14 compounds from patent US8710097B2, “Flavonoid dimers and methods of making and using such” (The Hong Kong Polytechnic University, priority 2006, dated 2014) can be followed below.

In assay [1] the test system is pentamidine-resistant L. enriettii LePentR50 promastigotes. Nature of the assay: microbe, parasite or virus in culture. The conditions noted are these: for IC50: Leishmania enriettii, 72 h, read-out: IC50(μM) of synthetic flavonoid, LePentR50, cytotoxicity of compound alone, 72 hrs; for pentamidine sensitization: LePentR50, FIG. 18A. Here is the method:
(§1) Cell lines and Cell Culture. Promastigotes of Leishmania enriettii (LePentR50, Le wild type, LeMDR1 −/− and LeMDR1-overexpressed LeV160 mutants) and Leishmania donovani (LdAG83, Ld2001 and Ld39) were employed in this study. The former is a natural infective strain of guinea pig and the latter is a clinical strain, which may cause visceral leishmaniasis in human. Both strains were cultured in Schneider's Drosophila Medium (Invitrogen), pH 6.9 supplemented with 10% (v/v) heat inactivated fetal calf serum (Hyclone) with 4 mM glutamine (Sigma) and 25 μg/mL gentamicin solution (Invitrogen), at 27° C. for 4 days (Cloning and functional analysis of an extrachromosomally amplified multidrug resistance-like gene in Leishmania enriettii. Mol. Biochem. Parasitol 1993, 60, 195-208).
Promastigotes of LeV160 were culture in the presence of 160 μg/mL vinblastine. No pentamidine and vinblastine (Sigma) was added to the Le wild type and LeMDR1 −/− mutant.
(§2) The viability of promastigotes was determined by the Cell Titer 96® Aqueous Assay (Promega) that employs a tetrazolium compound (MTS) and electron coupling reagent, phenazine methosulfate (PMS). Promastigotes were seeded into 96-well flat bottom microtiter plate at 1×10^5 cells per well in a final volume of 100 μL medium. To determine the cytotoxic effects of flavonoid dimers to the parasites, various concentrations of flavonoid dimers were added to the promastigotes. To determine the reversal effects of flavonoid dimers with different spacer lengths, various concentrations of antileishmanial drugs, one of pentamidine or SSG, vinblastine and puromycin was added to the wells with or without flavonoid dimers. The parasites were incubated at 27° C. for 72 hrs. Each concentration of antileishmanials with or without the flavonoid dimers was tested in triplicates in each experiment. A 2 mg/mL MTS and 0.92 mg/mL PMS were mixed at a ratio of 20:1 (MTS: PMS). After 72-hr incubation, 10 μL of MTS:PMS mixture was added into each well of microtiter plate. The plate was then incubated at 27° C. for 4 hrs for color development. After 4 hrs of incubation, the OD values were determined at 490 nm using automatic microtiter plate reader (Bio-Rad).

Assay [2] concerns wild type L. donovani LdAG83 promastigotes. The assay is described as follows: Leishmania cell viability (MTS) assay. In kind it is cell-based, Leishmania donovani. As to conditions: Leishmania donovani, read-out: IC50(μM) of synthetic flavonoid, LdAG83. The method, then:
as §1, with “195-208). […]” for “195-208).”
as §2

The subject of assay [3] is SSG-resistant L. donovani Ld39 promastigotes. Nature of the assay: microbe, parasite or virus in culture. In kind it is cell-based, Leishmania donovani. As to conditions: for SSG resistance modulating activity: Ld39, FIG. 14B; for IC50: Leishmania donovani, 72 h, read-out: IC50(μM) of synthetic flavonoid, Ld39. Here is the method: as §1, with “195-208). […]” for “195-208).”
as §2

The next assay deals with MDA435/LCC6 MDR cells. The assay is described as follows: cells. The conditions noted are these: for doxorubicin sensitization / reversing effect on taxol resistance: MDA435/LCC6 MDR; for doxorubicin sensitization: dimers; for reversing effect on taxol resistance: dimers at 5 μM; for reversing activity compared with verapamil: LCC6MDR, taxol, 5 μM. Here is the method:
MDA435/LCC6 and P388 (both parent and MDR subtype) were maintained in DMEM and RPMI 1640 culture medium supplemented with 10% FBS, respectively. RPMI 1640 media also contained 100 units/ml penicillin and 100 μg/ml streptomycin. Cells were cultured at 37° C. in a humidified atmosphere with 5% CO2. A solution of 0.05% trypsin-EDTA was used to detach the MDA435/LCC6 (both wild type and MDR subtype) cells.
Cell proliferation assay. MDA435/LCC6 and P388 (both parent and MDR subtype) cells were seeded at 2000 and 5000 cells per well, respectively, in 96-well plates. Varying concentrations of anticancer drugs (Doxorubicin, Daunorubicin, Vincristine, Vinblastine, taxol, Mitoxantrone) with or without the flavonoid dimers were added in a final volume of 200 μl and cells were grown for 4 and 3 days for MDA435/LCC6 and P388 (both parent and MDR subtype) cells, respectively. For MDA435/LCC6 (both parent and MDR subtype), the corresponding drugs were added after cell attachment (24 hr incubation). To measure cell proliferation, the cell Titer 960 Aqueous Assay (Promega) was used according to the manufacturer's instructions. Briefly, MTS (2 mg/ml) and PMS (0.92 mg/ml) were mixed in a ratio of 20:1. 30 μl MTS/PMS mixture was added into each well and incubated for 2 hours at 37° C. Optical absorbance at 490 nm was then recorded using an ELISA microtiter plate reader (Bio-Rad). Each experiment was done at least in triplicate and repeated twice. Cytotoxicity of the anticancer drugs was expressed as the fraction of the cells survived relative to the untreated DMSO (0.05%) solvent controls.
MDA435/LCC6 is an estrogen-independent human breast cancer cell line. Its MDR subtype (MDA435/LCC6 MDR) was generated by transducing a retroviral vector directing the constitutive expression of the human MDR1 cDNA, producing a cell line with a classical MDR1 resistance pattern (MDA435/LCC6 and MDA435/LCC6MDR1: ascites models of human breast cancer. Br J Cancer 1996, 73, 154-161). The ability of the apigenin dimers of this invention to reverse taxol resistance in MDA435/LCC6 MDR cells were tested. […] Apigenin monomers 10a and 10b at 10 μM were used as the negative controls.

The next assay has as its system P388/ADR cells. Nature of the assay: Doxorubicin accumulation. As to conditions: monomer 10b at double concentration of the dimers, FIG. 11A. In kind it is cell-based, murine. Here is the method:
For P388 (both parent and MDR subtype) cells, 1 ml (10^5 cells) confluent cells were aliquot into Eppendorf tube and pre-incubated with flavone dimers for 30 min at 37° C. Doxorubicin (final concentration of 10 μM) was then added and incubated for 2 h at 37° C. at a final concentration of 10 μM. The cell pellets were washed 3 times with cold PBS by using an Eppendorf micro-centrifuge and lysed with 0.3N HCL in 50% ethanol, and sonicated for 30s. After centrifugation at 10000 rpm/min for 3 min, the supernatant was saved. The fluorescence of doxorubicin was measured using a spectrofluorometer (λexcite=470 nm, λemit=585 nm).

Where two headings read alike, the source gives them in different places. Some results are limits rather than exact numbers.

`O=c1cc(-c2ccc(O)cc2)oc2cc(O)cc(O)c12` [Apigenin, reference compound]: the IC50 was determined as 55 ± 2.6 µM in assay [1]; 32 ± 4.1 µM in assay [2] (cytotoxicity of compound alone, 72 hrs); 43 ± 5.9 µM in assay [3]. Moreover, the “SSG resistance modulating activity” value in assay [3] (12 μM) is “did not give any significant modulating activity”.
For the compound `O=c1cc(-c2ccc(OCCOc3ccc(-c4cc(=O)c5c(O)cc(O)cc5o4)cc3)cc2)oc2cc(O)cc(O)c12` [Compound 9a, 1,4-Bis[4′-((5,7-dihydroxy)-4H-chromen-4-on-2-yl)phenyl]-1,4-dioxabutane], the doxorubicin sensitization result in the assay on MDA435/LCC6 MDR cells is given as “very little or no doxorubicin sensitization”. Also, the “reversing effect on taxol resistance” value in the assay with MDA435/LCC6 MDR cells was “little or no reversing effect”. Further, the “activity on doxorubicin accumulation” value in the assay with P388/ADR cells was “little or no activity at all”. Further, the IC50 is > 200 µM in assay [1], 95 ± 3.2 µM in assay [2] (72 h) and 117 ± 10 µM in assay [3]. The “SSG resistance modulating activity” value in assay [3] (dimers at 6 μM) is given as “did not show substantial SSG resistance modulating activity”.
As to `O=c1cc(-c2ccc(OCCOCCOCCOCCOCCOc3ccc(-c4cc(=O)c5c(O)cc(O)cc5o4)cc3)cc2)oc2cc(O)cc(O)c12` [Compound 9e, 1,16-Bis[4′-((5,7-dihydroxy)-4H-chromen-4-on-2-yl)phenyl]-1,4,7,10,13,16-hexaoxahexadecane], the doxorubicin sensitization entry in the assay with MDA435/LCC6 MDR cells was “very little or no doxorubicin sensitization”. The “reversing effect on taxol resistance” value in the assay with MDA435/LCC6 MDR cells is “little or no reversing effect”. The “activity on doxorubicin accumulation” value with P388/ADR cells is reported as “little or no activity at all”. Also, the IC50 in assay [1] worked out at 70 ± 3 µM; in assay [2] (72 h), 30 ± 1.2 µM; in assay [3], 42 ± 2.3 µM.
Turning to `O=c1cc(-c2ccc(OCCOCCOCCOCCOCCOCCOc3ccc(-c4cc(=O)c5c(O)cc(O)cc5o4)cc3)cc2)oc2cc(O)cc(O)c12` [Compound 9f, 1,19-Bis[4′-((5,7-dihydroxy)-4H-chromen-4-on-2-yl)phenyl]-1,4,7,10,13,16,19-heptaoxanonadecane], the doxorubicin sensitization result in the assay on MDA435/LCC6 MDR cells is “very little or no doxorubicin sensitization”. The “reversing effect on taxol resistance” value in the assay on MDA435/LCC6 MDR cells is “little or no reversing effect”. Moreover, the IC50 in assay [1] is 40 ± 5.3 µM; in assay [2] (72 h) it was 11 ± 2 µM; in assay [3], 13 ± 0.6 µM.
As for `O=c1cc(-c2ccc(OCCOCCOCCOCCOCCOCCOCCOCCOCCOc3ccc(-c4cc(=O)c5c(O)cc(O)cc5o4)cc3)cc2)oc2cc(O)cc(O)c12` [Compound 9i, 1,28-Bis[4′-((5,7-dihydroxy)-4H-chromen-4-on-2-yl)phenyl]-1,4,7,10,13,16,19,22,25,28-decaoxaoctacosane], the results for the IC50 in assay [2] (72 h) and in assay [3] were 10 ± 0.3 µM and 14 ± 0.1 µM, respectively.
For `O=c1cc(-c2ccc(OCCOCCOCCOCCOc3ccc(-c4cc(=O)c5ccccc5o4)cc3)cc2)oc2ccccc12` [Compound 35a, 1,13-Bis[4′-(4H-chromen-4-on-2-yl)phenyl]-1,4,7,10,13-pentaoxamidecane], in the assay with MDA435/LCC6 MDR cells, the “reversing activity compared with verapamil” value is given as “stronger reversing activity than verapamil”.
Same read-out and setting: as for `O=c1cc(-c2ccc(OCCOCCOCCOCCOc3ccc(-c4cc(=O)c5ccc(F)cc5o4)cc3)cc2)oc2cc(F)ccc12` [Compound 35b, 1,13-Bis[4′-(7-fluoro-4H-chromen-4-on-2-yl)phenyl]-1,4,7,10,13-pentaoxamidecane], the entry is “stronger reversing activity than verapamil”; as for `O=c1cc(-c2ccc(OCCOCCOCCOCCOc3ccc(-c4cc(=O)c5cc(Cl)cc(Cl)c5o4)cc3)cc2)oc2c(Cl)cc(Cl)cc12` [Compound 35f, 1,13-Bis[4′-(6,8-dichloro-4H-chromen-4-on-2-yl)phenyl]-1,4,7,10,13-pentaoxamidecane], “stronger reversing activity than verapamil”; as for `Cc1ccc2c(=O)cc(-c3ccc(OCCOCCOCCOCCOc4ccc(-c5cc(=O)c6ccc(C)cc6o5)cc4)cc3)oc2c1` [Compound 35g, 1,13-Bis[4′-(7-methyl-4H-chromen-4-on-2-yl)phenyl]-1,4,7,10,13-pentaoxamidecane], “stronger reversing activity than verapamil”.
On the same count and under the same terms, with `Cc1ccc2oc(-c3ccc(OCCOCCOCCOCCOc4ccc(-c5cc(=O)c6cc(C)ccc6o5)cc4)cc3)cc(=O)c2c1` [Compound 35h, 1,13-Bis[4′-(6-methyl-4H-chromen-4-on-2-yl)phenyl]-1,4,7,10,13-pentaoxamidecane] the entry was “stronger reversing activity than verapamil”.
Take `CCN(CC)CCCC(C)Nc1c2ccc(Cl)cc2nc2ccc(OC)cc12` (stereo not drawn) [quinacrine, reference compound]: in assay [1], the pentamidine sensitization was ~4.5 fold.
Still for that read-out and setting: with `C=C[C@H]1C[N@@]2CC[C@H]1C[C@@H]2[C@@H](O)c1ccnc2ccc(OC)cc12` [quinidine, reference compound] the entry was “less than half-fold sensitization”; with `C=C[C@H]1C[N@@]2CC[C@H]1C[C@H]2[C@H](O)c1ccnc2ccc(OC)cc12` [quinine, reference compound], “less than half-fold sensitization”; with `COC(=O)[C@H]1[C@H]2C[C@@H]3c4[nH]c5cc(OC)ccc5c4CCN3C[C@H]2C[C@@H](OC(=O)c2cc(OC)c(OC)c(OC)c2)[C@@H]1OC` [reserpine, reference compound], ~3.2 fold.
